# Source: ChEMBL document CHEMBL1156953, “Novel pyrrolyl 2-aminopyridines as potent and selective human beta-secretase (BACE1) inhibitors” (Bioorg Med Chem Lett, 2010)
# Test: Dissociation constant, pKa of the compound
# Format: physicochemical
row,Compound,pKa
1,Nc1cccc(Cn2c(-c3ccc(Oc4cncnc4)cc3)ccc2-c2ccccc2Cl)n1,6.86
2,CCCCCOc1ccc(-c2ccc(-c3ccccc3Cl)n2Cc2ccc(OCCCO)c(N)n2)cc1,6.86
3,CCCNC(=O)c1ccc(-c2ccc(-c3ccccc3)n2Cc2cccc(N)n2)cc1,6.86
4,Nc1cccc(Cn2c(-c3ccc(Oc4cccnc4)cc3)ccc2-c2ccccc2Cl)n1,6.86
5,Nc1nc(Cn2c(-c3ccc(Oc4cncnc4)cc3)ccc2-c2ccccc2Cl)ccc1NCCO,6.86
6,N#CCCCOc1ccc(-c2ccc(-c3ccccc3Cl)n2Cc2cccc(N)n2)cc1,6.86
7,CCCCCOc1ccc(-c2ccc(-c3ccccc3Cl)n2Cc2ccc(NCCO)c(N)n2)cc1,6.86
8,CC(C)NC(=O)c1ccc(-c2ccc(-c3ccccc3)n2Cc2cccc(N)n2)cc1,6.86
9,Nc1nc(Cn2c(-c3ccc(Oc4cncnc4)cc3)ccc2-c2ccccc2Cl)ccc1OCCO,6.86
10,Nc1cccc(Cn2c(-c3ccc(Oc4cccs4)cc3)ccc2-c2ccccc2Cl)n1,6.86
11,CCCCCCOc1ccc(-c2ccc(-c3ccccc3Cl)n2Cc2cccc(N)n2)cc1,6.86
12,CCCCNC(=O)c1ccc(-c2ccc(-c3ccccc3)n2Cc2cccc(N)n2)cc1,6.86
13,CCCCOc1ccc(-c2ccc(-c3ccccc3Cl)n2Cc2cccc(N)n2)cc1,6.86
14,Nc1cccc(Cn2c(-c3ccccc3)ccc2-c2ccc(C(=O)NC3CCC3)cc2)n1,6.86
15,CCCCCOc1ccc(-c2ccc(-c3ccccc3Cl)n2Cc2ccc(OCCO)c(N)n2)cc1,6.86
16,Nc1cccc(Cn2c(-c3ccccc3)ccc2-c2ccc(C(=O)NC3CC3)cc2)n1,6.86
17,CCCCCOc1ccc(-c2ccc(-c3ccccc3Cl)n2Cc2ccc(NCCCO)c(N)n2)cc1,6.86
18,Nc1cccc(Cn2c(-c3ccccc3)ccc2-c2ccccc2)n1,6.86
19,Nc1cccc(Cn2c(-c3ccc(Oc4cnccn4)cc3)ccc2-c2ccccc2Cl)n1,6.86
20,Nc1cccc(Cn2c(-c3ccc(Oc4ccccc4)cc3)ccc2-c2ccccc2Cl)n1,6.86
21,Nc1cccc(Cn2c(-c3ccc(Nc4cncnc4)cc3)ccc2-c2ccccc2Cl)n1,6.86
22,C=CCNC(=O)c1ccc(-c2ccc(-c3ccccc3)n2Cc2cccc(N)n2)cc1,6.86
23,CCCOc1ccc(-c2ccc(-c3ccccc3Cl)n2Cc2cccc(N)n2)cc1,6.86
24,COc1ccc(-c2ccc(-c3ccccc3Cl)n2Cc2cccc(N)n2)cc1,6.86
25,Nc1cccc(Cn2c(-c3ccc(Oc4cccnn4)cc3)ccc2-c2ccccc2Cl)n1,6.86
26,CCNC(=O)c1ccc(-c2ccc(-c3ccccc3)n2Cc2cccc(N)n2)cc1,6.86
27,Nc1cccc(Cn2c(-c3ccc(Oc4ccncc4)cc3)ccc2-c2ccccc2Cl)n1,6.86
28,CCCCCOc1ccc(-c2ccc(-c3ccccc3Cl)n2Cc2cccc(N)n2)cc1,6.86
29,Nc1cccc(Cn2c(-c3ccc(Oc4ccccn4)cc3)ccc2-c2ccccc2Cl)n1,6.86
